Measurements reported in patent publication US20250282820A1, “PEPTIDE COMPLEX HAVING TRKB BINDING ACTIVITY” (PEPTIDREAM INC, priority 2022, published 2025).
*1 amine or outer side, *2 acyl side, *3 side chain or, on linkers, in order; H or OH if unused. Where a SMILES comes first, the peptide text is derived from it. Bridges are numbered along the chain shown (N, C = ends). Roman numbers before positions name the chains, in order. Where no end group is shown, it is not given here. [ ]: non-standard residue; d: D form. CO(CH2)2(OCH2CH2)17CO = O=C(CCOCCOCCOCCOCCOCCOCCOCCOCCOCCOCCOCCOCCOCCOCCOCCOCCOCCC(=O)[*:2])[*:1]; X1 = O=C(OCCOCCOCCOCCOCCOCCOCCOCCOCCOCCOCCOCCOC(=O)[*:2])[*:1]; 3Pal = N[C@@H](Cc1cccnc1)C(=O)O; X2 = O=C(CCOCCC(=O)[*:2])[*:1]; PEG2 = NCCOCCOCCC(=O)O

Legend:
[1] = target: TrkB (Homo sapiens, UniProt Q16620); assay: PathHunter eXpress TrkB Functional Assay (phosphorylation of TrkB); format: cell-based; settings: maximum signal induced by BDNF = 100%; stimulation for 3 hours
Chain of TrkB (Q16620 32-822): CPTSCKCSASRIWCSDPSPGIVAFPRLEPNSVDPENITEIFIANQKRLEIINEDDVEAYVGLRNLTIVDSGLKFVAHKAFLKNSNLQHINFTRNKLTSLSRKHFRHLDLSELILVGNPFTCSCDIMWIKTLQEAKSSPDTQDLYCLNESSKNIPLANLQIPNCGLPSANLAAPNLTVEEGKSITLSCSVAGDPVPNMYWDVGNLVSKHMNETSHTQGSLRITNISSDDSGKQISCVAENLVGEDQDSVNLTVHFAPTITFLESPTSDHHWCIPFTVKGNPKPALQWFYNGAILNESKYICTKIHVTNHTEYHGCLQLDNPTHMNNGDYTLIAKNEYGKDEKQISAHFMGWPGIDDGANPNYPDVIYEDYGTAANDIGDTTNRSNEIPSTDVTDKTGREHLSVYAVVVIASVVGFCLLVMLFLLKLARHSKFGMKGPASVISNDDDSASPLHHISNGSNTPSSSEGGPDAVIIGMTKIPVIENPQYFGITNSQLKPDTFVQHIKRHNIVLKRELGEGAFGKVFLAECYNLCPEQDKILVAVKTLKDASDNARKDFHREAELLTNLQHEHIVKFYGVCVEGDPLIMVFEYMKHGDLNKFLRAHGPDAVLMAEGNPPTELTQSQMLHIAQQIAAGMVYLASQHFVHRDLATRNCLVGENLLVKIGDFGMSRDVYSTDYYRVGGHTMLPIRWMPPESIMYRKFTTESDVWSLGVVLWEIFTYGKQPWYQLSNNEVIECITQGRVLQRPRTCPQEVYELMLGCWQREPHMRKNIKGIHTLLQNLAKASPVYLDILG
Procedure, shortened: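 PathHunter TrkB cells, cultured 48 h, were stimulated 3 h with peptide or BDNF, then detection reagent added for 60 min at room temperature; luminescence read. Activity (%) scaled from unstimulated (0%) to maximal BDNF signal (100%); peptides tested over 0.006104-100 nM, 0.032-100 nM or 0.01-10 nM ranges.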

[2] = target: T1, TrkB (CellSensor TrkB-NFAT-bla CHO-K1 Cell) (Homo sapiens, UniProt Q16620); assay: pERK1/2 AlphaLISA assay (phosphorylation of ERK) for TrkB agonist activity; format: cell-based; settings: class = peptide concentration giving 50% or more activity; BDNF maximum signal = 100%, no stimulation = 0%; 15 minutes of stimulation
T1 construct: host or cells: CHO-K1 (CellSensor TrkB-NFAT-bla CHO-K1)
T1 sequence (Q16620 32-822): as above
Procedure, shortened: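 TrkB-NFAT-bla CHO-K1 cells were starved 4 h in 0.1% BSA medium and then stimulated 15 min with peptide or BDNF; p-ERK1/2 (Thr202/Tyr204) in the lysate was read by AlphaLISA SureFire. Activity % was scaled to the BDNF maximum (100%) and no stimulation (0%); A = ≥50% at 1 nM, B = ≥50% at 10 nM; curves were 8 points, 4-fold dilutions from 100 nM.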

[3] = target: T1, TrkB (CellSensor TrkB-NFAT-bla CHO-K1 Cell); assay: NFAT transcriptional reporter assay for TrkB agonist activity; format: cell-based; settings: class = peptide concentration giving 50% or more activity; BDNF maximum signal = 100%, no stimulation = 0%; 5 hours culture
Procedure, shortened: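 CHO-K1 TrkB-NFAT-bla cells, 12,500 per well, treated overnight-seeded with peptide or BDNF for 5 h, then CCF4-AM substrate 2 h in the dark; 460/535 nm emission ratio. Activity scaled to maximal BDNF signal (100%) and unstimulated (0%); grades A/B/C mean ≥50% activity at 1, 10 or 100 nM.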

[4] = target: TrkB of the cells of the PathHunter eXpress TrkB Functional Assay kit (DiscoverX) (UniProt Q16620 32-822, limits assumed); assay: cell-based or functional assay
Chain of TrkB of the cells of the PathHunter eXpress TrkB Functional Assay kit (DiscoverX) (Q16620 32-822 limits assumed): as the sequence (Q16620 32-822) above

[5] = target: Recombinant Human TrkB Fc Chimera Protein (R&D Systems) (human) (UniProt Q16620); assay: SPR (Biacore T200), TrkB-Fc captured on anti-human IgG (Fc) antibody, peptide complex as analyte, single cycle kinetics
Chain of Recombinant Human TrkB Fc Chimera Protein (R&D Systems) (human) (Q16620 32-430, change not shown): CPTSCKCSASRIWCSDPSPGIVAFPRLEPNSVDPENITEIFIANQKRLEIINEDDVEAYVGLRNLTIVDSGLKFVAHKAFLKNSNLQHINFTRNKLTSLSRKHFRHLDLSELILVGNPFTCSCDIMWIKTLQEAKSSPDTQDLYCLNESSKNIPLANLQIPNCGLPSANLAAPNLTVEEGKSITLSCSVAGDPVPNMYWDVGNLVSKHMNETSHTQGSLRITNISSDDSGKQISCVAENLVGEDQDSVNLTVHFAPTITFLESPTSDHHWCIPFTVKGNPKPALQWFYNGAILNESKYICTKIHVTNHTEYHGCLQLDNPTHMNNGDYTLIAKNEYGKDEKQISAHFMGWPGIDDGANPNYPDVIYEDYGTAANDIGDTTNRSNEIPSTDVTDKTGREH

Row | Molecule | Emax [1] [%] | pERK (aLISA) Assay Results [2] | NFAT Assay Results [3] | PathHunter EC50 [4] [nM] | PathHunter Emax (BDNF maximum = 100%) [4] [%] | koff [5] [s⁻¹]
1 | CC(C)[C@@H]1NC(=O)[C@H](Cc2cccnc2)NC(=O)[C@H](CCC(=O)O)NC(=O)[C@H](CO)NC(=O)[C@H](Cc2ccc(O)cc2)NC(=O)[C@H]([C@@H](C)O)NC(=O)[C@@H]2CCCN2C(=O)[C@H](Cc2c[nH]c3ccccc23)NC(=O)[C@H](Cc2cccnc2)NC(=O)[C@H](Cc2ccc(O)cc2)NC(=O)[C@@H]2CCCN2C(=O)[C@H](CO)NC(=O)[C@H](Cc2ccccc2)NC(=O)CSC[C@@H](C(=O)NCC(=O)N[C@@H](CCCCNC(=O)CCOCCOCCOCCOCCOCCOCCOCCOCCOCCOCCOCCOCCOCCOCCOCCOCCOCCC(=O)NCCCC[C@H](NC(=O)CNC(=O)[C@@H]2CSCC(=O)N[C@@H](Cc3ccccc3)C(=O)N[C@@H](CO)C(=O)N3CCC[C@H]3C(=O)N[C@@H](Cc3ccc(O)cc3)C(=O)N[C@@H](Cc3cccnc3)C(=O)N[C@@H](Cc3c[nH]c4ccccc34)C(=O)N3CCC[C@H]3C(=O)N[C@@H]([C@@H](C)O)C(=O)N[C@@H](Cc3ccc(O)cc3)C(=O)N[C@@H](CO)C(=O)N[C@@H](CCC(=O)O)C(=O)N[C@@H](Cc3cccnc3)C(=O)N[C@@H](C(C)C)C(=O)N[C@@H](CCC(=O)O)C(=O)N2)C(N)=O)C(N)=O)NC(=O)[C@H](CCC(=O)O)NC1=O [compound 49] (I: {CH2CO}-FSPY[3Pal]WPTYSE[3Pal]VECGK-NH2 / II: {CH2CO}-FSPY[3Pal]WPTYSE[3Pal]VECGK-NH2; linker I:17-II:17 via CO(CH2)2(OCH2CH2)17CO; thioether I:N-I:15, II:N-II:15) | 107 | A (The peptide with 50% or more activity when 1 nM of the peptide was added was evaluated as A) | A (The peptide with 50% or more activity when 1 nM of the peptide was added was evaluated as A) | – | – | –
2 | CC(C)[C@@H]1NC(=O)[C@H](Cc2cccnc2)NC(=O)[C@H](CCC(=O)O)NC(=O)[C@H](CO)NC(=O)[C@H](Cc2ccc(O)cc2)NC(=O)[C@H]([C@@H](C)O)NC(=O)[C@@H]2CCCN2C(=O)[C@H](Cc2c[nH]c3ccccc23)NC(=O)[C@H](Cc2cccnc2)NC(=O)[C@H](Cc2ccc(O)cc2)NC(=O)[C@@H]2CCCN2C(=O)[C@H](CO)NC(=O)[C@H](Cc2ccccc2)NC(=O)CSC[C@@H](C(=O)NCC(=O)NCCOCCOCCC(=O)N[C@@H](CCCCNC(=O)CCOCCC(=O)NCCCC[C@H](NC(=O)CCOCCOCCNC(=O)CNC(=O)[C@@H]2CSCC(=O)N[C@@H](Cc3ccccc3)C(=O)N[C@@H](CO)C(=O)N3CCC[C@H]3C(=O)N[C@@H](Cc3ccc(O)cc3)C(=O)N[C@@H](Cc3cccnc3)C(=O)N[C@@H](Cc3c[nH]c4ccccc34)C(=O)N3CCC[C@H]3C(=O)N[C@@H]([C@@H](C)O)C(=O)N[C@@H](Cc3ccc(O)cc3)C(=O)N[C@@H](CO)C(=O)N[C@@H](CCC(=O)O)C(=O)N[C@@H](Cc3cccnc3)C(=O)N[C@@H](C(C)C)C(=O)N[C@@H](CCC(=O)O)C(=O)N2)C(N)=O)C(N)=O)NC(=O)[C@H](CCC(=O)O)NC1=O [compound 51] (I: {CH2CO}-FSPY[3Pal]WPTYSE[3Pal]VECG[PEG2]K-NH2 / II: {CH2CO}-FSPY[3Pal]WPTYSE[3Pal]VECG[PEG2]K-NH2; linker I:18-II:18 via X2; thioether I:N-I:15, II:N-II:15) | 106 | A (The peptide with 50% or more activity when 1 nM of the peptide was added was evaluated as A) | A (The peptide with 50% or more activity when 1 nM of the peptide was added was evaluated as A) | – | – | –
3 | CC(C)[C@@H]1NC(=O)[C@H](Cc2cccnc2)NC(=O)[C@H](CCC(=O)O)NC(=O)[C@H](CO)NC(=O)[C@H](Cc2ccc(O)cc2)NC(=O)[C@H]([C@@H](C)O)NC(=O)[C@@H]2CCCN2C(=O)[C@H](Cc2c[nH]c3ccccc23)NC(=O)[C@H](Cc2cccnc2)NC(=O)[C@H](Cc2ccc(O)cc2)NC(=O)[C@@H]2CCCN2C(=O)[C@H](CO)NC(=O)[C@H](Cc2ccccc2)NC(=O)CSC[C@@H](C(=O)NCC(=O)N[C@@H](CCCCNC(=O)OCCOCCOCCOCCOCCOCCOCCOCCOCCOCCOCCOCCOC(=O)NCCCC[C@H](NC(=O)CNC(=O)[C@@H]2CSCC(=O)N[C@@H](Cc3ccccc3)C(=O)N[C@@H](CO)C(=O)N3CCC[C@H]3C(=O)N[C@@H](Cc3ccc(O)cc3)C(=O)N[C@@H](Cc3cccnc3)C(=O)N[C@@H](Cc3c[nH]c4ccccc34)C(=O)N3CCC[C@H]3C(=O)N[C@@H]([C@@H](C)O)C(=O)N[C@@H](Cc3ccc(O)cc3)C(=O)N[C@@H](CO)C(=O)N[C@@H](CCC(=O)O)C(=O)N[C@@H](Cc3cccnc3)C(=O)N[C@@H](C(C)C)C(=O)N[C@@H](CCC(=O)O)C(=O)N2)C(N)=O)C(N)=O)NC(=O)[C@H](CCC(=O)O)NC1=O [compound 55] (I: {CH2CO}-FSPY[3Pal]WPTYSE[3Pal]VECGK-NH2 / II: {CH2CO}-FSPY[3Pal]WPTYSE[3Pal]VECGK-NH2; linker I:17-II:17 via X1; thioether I:N-I:15, II:N-II:15) | 104 | A (The peptide with 50% or more activity when 1 nM of the peptide was added was evaluated as A) | A (The peptide with 50% or more activity when 1 nM of the peptide was added was evaluated as A) | – | – | –
4 | CC(C)[C@@H]1NC(=O)[C@H](Cc2cccnc2)NC(=O)[C@H](CCC(=O)O)NC(=O)[C@H](CO)NC(=O)[C@H](Cc2ccc(O)cc2)NC(=O)[C@H]([C@@H](C)O)NC(=O)[C@@H]2CCCN2C(=O)[C@H](Cc2c[nH]c3ccccc23)NC(=O)[C@H](Cc2cccnc2)NC(=O)[C@H](Cc2ccc(O)cc2)NC(=O)[C@@H]2CCCN2C(=O)[C@H](CCC(=O)O)NC(=O)[C@H](Cc2ccccc2)NC(=O)CSC[C@@H](C(=O)NCC(=O)N[C@@H](CCCCNC(=O)OCCOCCOCCOCCOCCOCCOCCOCCOCCOCCOCCOCCOC(=O)NCCCC[C@H](NC(=O)CNC(=O)[C@@H]2CSCC(=O)N[C@@H](Cc3ccccc3)C(=O)N[C@@H](CCC(=O)O)C(=O)N3CCC[C@H]3C(=O)N[C@@H](Cc3ccc(O)cc3)C(=O)N[C@@H](Cc3cccnc3)C(=O)N[C@@H](Cc3c[nH]c4ccccc34)C(=O)N3CCC[C@H]3C(=O)N[C@@H]([C@@H](C)O)C(=O)N[C@@H](Cc3ccc(O)cc3)C(=O)N[C@@H](CO)C(=O)N[C@@H](CCC(=O)O)C(=O)N[C@@H](Cc3cccnc3)C(=O)N[C@@H](C(C)C)C(=O)N[C@@H](CCC(=O)O)C(=O)N2)C(N)=O)C(N)=O)NC(=O)[C@H](CCC(=O)O)NC1=O [compound 57] (I: {CH2CO}-FEPY[3Pal]WPTYSE[3Pal]VECGK-NH2 / II: {CH2CO}-FEPY[3Pal]WPTYSE[3Pal]VECGK-NH2; linker I:17-II:17 via X1; thioether I:N-I:15, II:N-II:15) | 99 | A (The peptide with 50% or more activity when 1 nM of the peptide was added was evaluated as A) | A (The peptide with 50% or more activity when 1 nM of the peptide was added was evaluated as A) | – | – | –
5 | {CH2CO}-FEPY[3Pal]WPTYSE[3Pal]VECG (thioether N-15; also: homodimer via linker No. 7 (K-cPEG13c-K) at Gly16) [peptide complex, dimer structure No. 56 (peptide sequence No. 17 + linker structure No. 7)] | – | – | – | 0.358 | 93 | < 1e-05
6 | {CH2CO}-FSPY[3Pal]WPTYSE[3Pal]VECG (thioether N-15; also: homodimer via linker No. 7 (K-cPEG13c-K) at Gly16) [peptide complex, dimer structure No. 48 (peptide sequence No. 15 + linker structure No. 7)] | – | – | – | 0.421 | 102 | < 1e-05
